# From paper PMC9848300, “Discovery of novel enasidenib analogues targeting inhibition of mutant isocitrate dehydrogenase 2 as antileukaemic agents” (Journal of Enzyme Inhibition and Medicinal Chemistry, 2023)
# Values joined by “and” are separate entries in the source; they are usually repeats but may differ in a detail not shown here. Identical values can stand only once.
# What was measured:
# Type in all cases: cell-based
# MDA-MB-468 = experiment: NCI 60 antitumor screening (single dose / five doses); conditions: Homo sapiens; for inhibition at 10 µM: MDA-MB-468 (breast cancer), single dose 10 μM, read-out: Growth inhibition percentage (GI %)
# MOLT-4 = experiment: as above; conditions: Homo sapiens; for inhibition at 10 µM: MOLT-4 (leukaemia), single dose 10 μM, read-out: Growth inhibition percentage (GI %)
# [1] = test system: 60 human subpanel cancer cell lines; experiment: NCI 60 antitumor screening, mean over the panel (single dose); conditions: mean over 60 cancer cell lines, single dose 10 μM
# How it was run: (§1)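 Assessment used the first tier of the NCI 60 screen, one dose of 10 μM per compound. Triplicate experiments gave percent growth of treated cells. Inhibition was then derived as 100 − G%.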
# SF-295 = experiment: NCI 60 antitumor screening (single dose / five doses); conditions: Homo sapiens; for inhibition at 10 µM: SF-295 (CNS cancer), single dose 10 μM, read-out: Growth inhibition percentage (GI %)
# MDA-MB-435 = experiment: as above; conditions: Homo sapiens; for inhibition at 10 µM: MDA-MB-435 (melanoma), single dose 10 μM, read-out: Growth inhibition percentage (GI %)
# HL-60(TB) = experiment: as above; conditions: Homo sapiens; for inhibition at 10 µM: HL-60(TB) (leukaemia), single dose 10 μM, read-out: Growth inhibition percentage (GI %)
# SR = experiment: as above; conditions: Homo sapiens; for inhibition at 10 µM: SR (leukaemia), single dose 10 μM, read-out: Growth inhibition percentage (GI %)
# DU-145 = experiment: as above; conditions: Homo sapiens; for inhibition at 10 µM: DU-145 (prostate cancer), single dose 10 μM, read-out: Growth inhibition percentage (GI %)
# RXF 393 = experiment: as above; conditions: Homo sapiens; for inhibition at 10 µM: RXF 393 (renal cancer), single dose 10 μM, read-out: Growth inhibition percentage (GI %)
# SNB-75 = experiment: as above; conditions: Homo sapiens; for inhibition at 10 µM: SNB-75 (CNS cancer), single dose 10 μM, read-out: Growth inhibition percentage (GI %)
# SK-MEL-28 = experiment: as above; conditions: Homo sapiens; for inhibition at 10 µM: SK-MEL-28 (melanoma), single dose 10 μM, read-out: Growth inhibition percentage (GI %)
# NCI/ADR-RES = experiment: as above; conditions: Homo sapiens; for inhibition at 10 µM: NCI/ADR-RES (ovarian cancer), single dose 10 μM, read-out: Growth inhibition percentage (GI %)
# BT-549 = experiment: as above; conditions: Homo sapiens; for inhibition at 10 µM: BT-549 (breast cancer), single dose 10 μM, read-out: Growth inhibition percentage (GI %)
# HCT-116 = experiment: as above; conditions: Homo sapiens; for inhibition at 10 µM: HCT-116 (colon cancer), single dose 10 μM, read-out: Growth inhibition percentage (GI %)
# UACC-62 = experiment: as above; conditions: Homo sapiens; for inhibition at 10 µM: UACC-62 (melanoma), single dose 10 μM, read-out: Growth inhibition percentage (GI %)
# SN 12C = experiment: as above; conditions: Homo sapiens, SN12C; for inhibition at 10 µM: SN 12C (renal cancer), single dose 10 μM, read-out: Growth inhibition percentage (GI %)
# SK-MEL-5 = experiment: as above; conditions: Homo sapiens; for inhibition at 10 µM: SK-MEL-5 (melanoma), single dose 10 μM, read-out: Growth inhibition percentage (GI %)
# EKVX = experiment: as above; conditions: Homo sapiens; for inhibition at 10 µM: EKVX (non-small cell lung cancer), single dose 10 μM, read-out: Growth inhibition percentage (GI %)
# A498 = experiment: as above; conditions: Homo sapiens; for inhibition at 10 µM: A498 (renal cancer), single dose 10 μM, read-out: Growth inhibition percentage (GI %)
# SK-MEL-2 = experiment: as above; conditions: Homo sapiens; for inhibition at 10 µM: SK-MEL-2 (melanoma), single dose 10 μM, read-out: Growth inhibition percentage (GI %)
# MDA-MB-231/ATCC = experiment: as above; conditions: Homo sapiens; for inhibition at 10 µM: MDA-MB-231/ATCC (breast cancer), single dose 10 μM, read-out: Growth inhibition percentage (GI %)
# SK-OV-3 = experiment: NCI 60 antitumor screening (single dose); conditions: Homo sapiens; SK-OV-3 (ovarian cancer), single dose 10 μM; read-out: Growth inhibition percentage (GI %)
# How it was run: as §1
# NCI-H23 = experiment: NCI 60 antitumor screening (single dose); conditions: Homo sapiens; NCI-H23 (non-small cell lung cancer), single dose 10 μM; read-out: Growth inhibition percentage (GI %)
# How it was run: as §1
# OVCAR-4 = experiment: NCI 60 antitumor screening (single dose); conditions: Homo sapiens; OVCAR-4 (ovarian cancer), single dose 10 μM; read-out: Growth inhibition percentage (GI %)
# How it was run: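 NCI-60 protocol: single 10 μM dose against each cell line, run in triplicate. Percent growth (G%) of treated cells measured and growth inhibition reported as GI% = 100 − G%; panel mean also given.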
# HCT-15 = experiment: NCI 60 antitumor screening (single dose / five doses); conditions: Homo sapiens; for inhibition at 10 µM: HCT-15 (colon cancer), single dose 10 μM, read-out: Growth inhibition percentage (GI %)
# IGROV1 = experiment: as above; conditions: Homo sapiens, IGROV-1; for inhibition at 10 µM: IGROV1 (ovarian cancer), single dose 10 μM, read-out: Growth inhibition percentage (GI %)
# COLO 205 = experiment: as above; conditions: Homo sapiens; for inhibition at 10 µM: COLO 205 (colon cancer), single dose 10 μM, read-out: Growth inhibition percentage (GI %)
# LOX IMVI = experiment: as above; conditions: Homo sapiens; for inhibition at 10 µM: LOX IMVI (melanoma), single dose 10 μM, read-out: Growth inhibition percentage (GI %)
smiles,measurement,setting,value
"Clc1cccc(/C=N/Nc2nc(N/N=C/c3cccc(Cl)c3)nc(N3CCOCC3)n2)c1 [compound 6d, 2,4-Bis[(E)-2-[(3-chlorophenyl)methylidene]hydrazin-1-yl]-6-(morpholin-4-yl)-1,3,5-triazine]",inhibition at 10 µM,MDA-MB-468,69.2%
same,GI50,"MDA-MB-468; MDA-MB-468, five doses (0.01–100 μM), read-out: GI50",1.65 µM
same,inhibition at 10 µM,MOLT-4,94%
same,GI50,"MOLT-4; MOLT-4, five doses (0.01–100 μM), read-out: GI50",1.49 µM
same,Mean GI %,[1],53.70% and 53.69%
same,inhibition at 10 µM,SF-295,42.4%
same,GI50,"SF-295; SF-295, five doses (0.01–100 μM), read-out: GI50",4.13 µM
same,inhibition at 10 µM,MDA-MB-435,50.7%
same,GI50,"MDA-MB-435; MDA-MB-435, five doses (0.01–100 μM), read-out: GI50",4.24 µM
same,inhibition at 10 µM,HL-60(TB),110%
same,GI50,"HL-60(TB); HL-60(TB), five doses (0.01–100 μM), read-out: GI50",0.5 µM
same,inhibition at 10 µM,SR,92.3%
same,GI50,"SR; SR, five doses (0.01–100 μM), read-out: GI50",0.32 µM
same,inhibition at 10 µM,DU-145,57.5%
same,GI50,"DU-145; DU-145, five doses (0.01–100 μM), read-out: GI50",2.62 µM
same,inhibition at 10 µM,RXF 393,82.5%
same,GI50,"RXF 393; RXF 393, five doses (0.01–100 μM), read-out: GI50",1 µM
same,inhibition at 10 µM,SNB-75,-2.64%
same,GI50,"SNB-75; SNB-75, five doses (0.01–100 μM), read-out: GI50",3.33 µM
same,inhibition at 10 µM,SK-MEL-28,70.2%
same,GI50,"SK-MEL-28; SK-MEL-28, five doses (0.01–100 μM), read-out: GI50",2.86 µM
same,inhibition at 10 µM,NCI/ADR-RES,38.2%
same,GI50,"NCI/ADR-RES; NCI/ADR-RES, five doses (0.01–100 μM), read-out: GI50",4.58 µM
same,inhibition at 10 µM,BT-549,7.26%
same,GI50,"BT-549; BT-549, five doses (0.01–100 μM), read-out: GI50",3.22 µM
same,inhibition at 10 µM,HCT-116,77.2%
same,GI50,"HCT-116; HCT-116, five doses (0.01–100 μM), read-out: GI50",1.27 µM
same,inhibition at 10 µM,UACC-62,8.33%
same,GI50,"UACC-62; UACC-62, five doses (0.01–100 μM), read-out: GI50",4.54 µM
same,inhibition at 10 µM,SN 12C,40.1%
same,GI50,"SN 12C; SN 12C, five doses (0.01–100 μM), read-out: GI50",4.99 µM
same,inhibition at 10 µM,SK-MEL-5,55.9%
same,GI50,"SK-MEL-5; SK-MEL-5, five doses (0.01–100 μM), read-out: GI50",1.72 µM
same,inhibition at 10 µM,EKVX,27.8%
same,GI50,"EKVX; EKVX, five doses (0.01–100 μM), read-out: GI50",4.23 µM
same,inhibition at 10 µM,A498,95.7%
same,GI50,"A498; A498, five doses (0.01–100 μM), read-out: GI50",1.67 µM
same,inhibition at 10 µM,SK-MEL-2,102%
same,GI50,"SK-MEL-2; SK-MEL-2, five doses (0.01–100 μM)",2.18 µM
same,GI50,"MDA-MB-231/ATCC; MDA-MB-231/ ATCC, five doses (0.01–100 μM), read-out: GI50",9.16 µM
same,inhibition at 10 µM,MDA-MB-231/ATCC,28.7%
same,inhibition at 10 µM,SK-OV-3,-29.6%
same,inhibition at 10 µM,NCI-H23,29.4%
same,inhibition at 10 µM,OVCAR-4,33.6%
same,inhibition at 10 µM,HCT-15,111%
same,GI50,"HCT-15; HCT-15, five doses (0.01–100 μM), read-out: GI50",0.91 µM
same,inhibition at 10 µM,IGROV1,49.4%
same,GI50,"IGROV1; IGROV1, five doses (0.01–100 μM), read-out: GI50",4.61 µM
same,inhibition at 10 µM,COLO 205,63.1%
same,GI50,"COLO 205; COLO 205, five doses (0.01–100 μM), read-out: GI50",1.23 µM
same,inhibition at 10 µM,LOX IMVI,67.4%
same,GI50,"LOX IMVI; LOX IMVI, five doses (0.01–100 μM), read-out: GI50",2.99 µM
"Fc1cccc(/C=N/Nc2nc(N/N=C/c3cccc(F)c3)nc(N3CCOCC3)n2)c1 [compound 6e, 2,4-Bis[(E)-2-[(3-Fluorophenyl)methylidene]hydrazin-1-yl]-6-(morpholin-4-yl)-1,3,5-triazine]",inhibition at 10 µM,MDA-MB-468,11.5%
same,inhibition at 10 µM,MOLT-4,33.9%
same,Mean GI %,[1],15.60%
same,inhibition at 10 µM,SF-295,-8.45%
same,inhibition at 10 µM,MDA-MB-435,1.89%
same,inhibition at 10 µM,HL-60(TB),50.9%
same,inhibition at 10 µM,SR,60.2%
same,inhibition at 10 µM,DU-145,40.5%
same,inhibition at 10 µM,RXF 393,79.3%
same,inhibition at 10 µM,SNB-75,18.3%
same,inhibition at 10 µM,SK-MEL-28,10.1%
same,inhibition at 10 µM,NCI/ADR-RES,8.29%
same,inhibition at 10 µM,BT-549,11.6%
same,inhibition at 10 µM,HCT-116,24.6%
same,inhibition at 10 µM,UACC-62,-5.24%
same,inhibition at 10 µM,SN 12C,8.98%
same,inhibition at 10 µM,SK-MEL-5,27.9%
same,inhibition at 10 µM,EKVX,10.9%
same,inhibition at 10 µM,A498,52%
same,inhibition at 10 µM,SK-MEL-2,2.51%
same,inhibition at 10 µM,MDA-MB-231/ATCC,3.49%
same,inhibition at 10 µM,SK-OV-3,-17.7%
same,inhibition at 10 µM,NCI-H23,-1.55%
same,inhibition at 10 µM,OVCAR-4,0.54%
same,inhibition at 10 µM,HCT-15,52.5%
same,inhibition at 10 µM,IGROV1,18.4%
same,inhibition at 10 µM,COLO 205,37.4%
same,inhibition at 10 µM,LOX IMVI,0.67%
